The values below come from ChEMBL document CHEMBL5465560, “Selectivity Literature for EUbOPEN Chemogenomic Library” (2024).

Test [1] deals with T1, Interleukin-1 receptor-associated kinase 3 (Homo sapiens) (UniProt Q9Y616).
T1 sequence (whole entry): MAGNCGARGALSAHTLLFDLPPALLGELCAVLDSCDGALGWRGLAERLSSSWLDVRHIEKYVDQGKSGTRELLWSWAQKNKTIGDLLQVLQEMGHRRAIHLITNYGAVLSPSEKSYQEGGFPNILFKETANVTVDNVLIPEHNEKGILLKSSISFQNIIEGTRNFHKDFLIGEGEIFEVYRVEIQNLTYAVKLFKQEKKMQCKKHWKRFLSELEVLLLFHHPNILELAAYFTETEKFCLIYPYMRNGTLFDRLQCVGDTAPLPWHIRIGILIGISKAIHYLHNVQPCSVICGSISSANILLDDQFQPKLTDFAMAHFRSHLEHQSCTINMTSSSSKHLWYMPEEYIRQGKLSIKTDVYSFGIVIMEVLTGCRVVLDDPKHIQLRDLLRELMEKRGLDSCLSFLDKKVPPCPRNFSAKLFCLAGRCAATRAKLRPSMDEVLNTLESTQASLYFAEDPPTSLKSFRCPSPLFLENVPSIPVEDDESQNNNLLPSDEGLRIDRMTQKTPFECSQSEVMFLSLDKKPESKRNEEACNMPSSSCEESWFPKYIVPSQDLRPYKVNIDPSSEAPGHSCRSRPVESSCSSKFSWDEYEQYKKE
Briefly: Selectivity interaction (KinomeScan (DiscoverX)) EUB0001079a IRAK3. Conditions: at 1 µM.

Test [2] deals with Mitogen-activated protein kinase kinase kinase 1 (Homo sapiens, UniProt Q13233). In words: Selectivity interaction (KinomeScan (DiscoverX)) EUB0001049a MAP3K1. Conditions: at 1 µM.
Test [3] deals with T2, SNF-related serine/threonine-protein kinase (Homo sapiens) (UniProt Q9NRH2).
T2 sequence (whole entry): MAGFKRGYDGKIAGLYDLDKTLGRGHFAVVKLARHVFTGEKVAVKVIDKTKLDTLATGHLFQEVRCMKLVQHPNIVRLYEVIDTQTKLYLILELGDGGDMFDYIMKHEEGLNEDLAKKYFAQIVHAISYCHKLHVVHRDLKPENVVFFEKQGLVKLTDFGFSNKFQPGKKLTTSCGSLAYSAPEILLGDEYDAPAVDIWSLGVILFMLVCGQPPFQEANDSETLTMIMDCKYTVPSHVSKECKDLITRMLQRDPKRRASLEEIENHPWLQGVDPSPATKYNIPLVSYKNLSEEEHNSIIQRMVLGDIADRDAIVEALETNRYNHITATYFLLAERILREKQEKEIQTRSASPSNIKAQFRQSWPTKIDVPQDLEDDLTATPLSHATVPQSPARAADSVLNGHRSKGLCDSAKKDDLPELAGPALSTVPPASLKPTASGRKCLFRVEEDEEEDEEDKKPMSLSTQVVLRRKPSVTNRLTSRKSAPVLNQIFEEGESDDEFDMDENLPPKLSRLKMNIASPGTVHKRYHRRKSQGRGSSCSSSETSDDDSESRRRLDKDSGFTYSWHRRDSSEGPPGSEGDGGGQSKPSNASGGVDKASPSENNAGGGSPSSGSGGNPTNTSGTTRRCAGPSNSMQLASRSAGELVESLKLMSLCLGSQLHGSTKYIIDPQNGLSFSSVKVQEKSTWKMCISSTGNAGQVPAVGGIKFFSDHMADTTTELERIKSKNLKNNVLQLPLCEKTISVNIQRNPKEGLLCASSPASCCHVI
In words: Selectivity interaction (KinomeScan (DiscoverX)) EUB0000045b SNRK.

The target of test [4] is Calcium/calmodulin-dependent protein kinase type II subunit delta (Homo sapiens) (UniProt Q13557). Briefly: Selectivity interaction (ActivX KiNativ screen (kinase selectivity in THP-1 cell lysates)) EUB0000639a CAMK2D. The test is classed as subcellular. Conditions: lysate, at 0.04 µM.
The target in test [5] is Receptor tyrosine-protein kinase erbB-4 (Homo sapiens, UniProt Q15303). Briefly: Selectivity interaction (Kinase panel (Invitrogen)) EUB0000639a ERBB4. Conditions: at 200 nM.
The target in test [6] is Dual specificity mitogen-activated protein kinase kinase 2 (Homo sapiens) (UniProt P36507). In words: Selectivity interaction (ActivX KiNativ screen (kinase selectivity in THP-1 cell lysates)) EUB0000639a MAP2K2. Type of test: subcellular. To be noted: lysate, at 0.2 µM.
The target of test [7] is Receptor tyrosine-protein kinase erbB-2 (Homo sapiens, UniProt P04626). Briefly: Selectivity interaction (Kinase panel (33PanQinase(R) Activity Assay)) EUB0000877a ERBB2.
In test [8] the target is RAC-beta serine/threonine-protein kinase (Homo sapiens) (UniProt P31751). In words: Selectivity interaction (KinomeScan (DiscoverX)) EUB0000595a AKT2. Conditions: at 10 µM.
For test [9], the target named is Tyrosine-protein kinase FRK (Homo sapiens) (UniProt P42685). Briefly: Selectivity interaction (KinomeScan (DiscoverX)) EUB0001619a FRK. Conditions: at 1 µM.

Where only a bound is given, the exact number is not on record here.

Chain of Tyrosine-protein kinase FRK (Homo sapiens) (P42685 whole entry): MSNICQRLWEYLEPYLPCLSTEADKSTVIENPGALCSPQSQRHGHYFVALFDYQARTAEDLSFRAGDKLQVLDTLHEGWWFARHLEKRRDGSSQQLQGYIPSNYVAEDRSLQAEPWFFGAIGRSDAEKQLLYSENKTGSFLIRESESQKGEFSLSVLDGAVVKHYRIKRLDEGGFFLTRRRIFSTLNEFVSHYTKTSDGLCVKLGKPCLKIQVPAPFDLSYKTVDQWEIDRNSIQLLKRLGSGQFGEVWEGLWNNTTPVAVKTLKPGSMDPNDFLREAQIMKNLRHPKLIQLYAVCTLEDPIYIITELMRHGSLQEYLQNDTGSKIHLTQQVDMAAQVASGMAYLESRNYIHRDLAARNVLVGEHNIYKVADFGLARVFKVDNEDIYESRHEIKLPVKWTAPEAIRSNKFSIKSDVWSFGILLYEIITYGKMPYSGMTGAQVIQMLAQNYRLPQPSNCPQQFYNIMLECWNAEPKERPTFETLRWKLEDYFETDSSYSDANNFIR
Chain of Receptor tyrosine-protein kinase erbB-4 (Q15303 whole entry): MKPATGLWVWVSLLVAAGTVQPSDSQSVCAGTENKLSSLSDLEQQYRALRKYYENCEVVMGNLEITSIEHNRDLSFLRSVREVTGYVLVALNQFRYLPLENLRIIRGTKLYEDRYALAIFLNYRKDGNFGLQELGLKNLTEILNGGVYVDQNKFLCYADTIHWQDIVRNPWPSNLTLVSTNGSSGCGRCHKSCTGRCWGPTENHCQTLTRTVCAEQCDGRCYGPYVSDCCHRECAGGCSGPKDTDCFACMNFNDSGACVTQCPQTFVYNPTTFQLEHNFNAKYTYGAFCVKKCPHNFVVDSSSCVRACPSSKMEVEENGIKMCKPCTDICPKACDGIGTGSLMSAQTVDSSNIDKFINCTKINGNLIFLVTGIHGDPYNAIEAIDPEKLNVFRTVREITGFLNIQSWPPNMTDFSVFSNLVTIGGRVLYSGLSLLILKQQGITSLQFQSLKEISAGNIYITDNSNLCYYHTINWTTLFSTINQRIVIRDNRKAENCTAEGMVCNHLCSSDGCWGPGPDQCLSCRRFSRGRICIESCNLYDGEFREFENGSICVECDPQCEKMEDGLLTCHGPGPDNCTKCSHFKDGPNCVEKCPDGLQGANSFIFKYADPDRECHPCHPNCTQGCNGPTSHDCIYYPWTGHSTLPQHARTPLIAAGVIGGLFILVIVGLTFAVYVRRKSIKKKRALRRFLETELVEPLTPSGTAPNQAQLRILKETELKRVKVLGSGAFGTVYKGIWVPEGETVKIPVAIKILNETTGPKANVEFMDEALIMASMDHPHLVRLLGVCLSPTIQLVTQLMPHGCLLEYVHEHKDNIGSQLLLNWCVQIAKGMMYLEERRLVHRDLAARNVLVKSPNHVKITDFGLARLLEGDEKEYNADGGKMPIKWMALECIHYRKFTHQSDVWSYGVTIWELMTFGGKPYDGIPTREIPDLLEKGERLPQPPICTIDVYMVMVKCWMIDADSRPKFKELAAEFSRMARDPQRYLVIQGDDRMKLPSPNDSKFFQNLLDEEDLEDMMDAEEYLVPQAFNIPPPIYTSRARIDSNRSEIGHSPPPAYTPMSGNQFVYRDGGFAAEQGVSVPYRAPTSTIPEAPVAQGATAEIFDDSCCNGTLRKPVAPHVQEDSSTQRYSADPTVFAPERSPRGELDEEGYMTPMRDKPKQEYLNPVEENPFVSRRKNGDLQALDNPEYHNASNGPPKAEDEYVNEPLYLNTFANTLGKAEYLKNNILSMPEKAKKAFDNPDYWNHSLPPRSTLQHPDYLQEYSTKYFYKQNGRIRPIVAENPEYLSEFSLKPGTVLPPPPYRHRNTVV
Chain of Receptor tyrosine-protein kinase erbB-2 (P04626 whole entry): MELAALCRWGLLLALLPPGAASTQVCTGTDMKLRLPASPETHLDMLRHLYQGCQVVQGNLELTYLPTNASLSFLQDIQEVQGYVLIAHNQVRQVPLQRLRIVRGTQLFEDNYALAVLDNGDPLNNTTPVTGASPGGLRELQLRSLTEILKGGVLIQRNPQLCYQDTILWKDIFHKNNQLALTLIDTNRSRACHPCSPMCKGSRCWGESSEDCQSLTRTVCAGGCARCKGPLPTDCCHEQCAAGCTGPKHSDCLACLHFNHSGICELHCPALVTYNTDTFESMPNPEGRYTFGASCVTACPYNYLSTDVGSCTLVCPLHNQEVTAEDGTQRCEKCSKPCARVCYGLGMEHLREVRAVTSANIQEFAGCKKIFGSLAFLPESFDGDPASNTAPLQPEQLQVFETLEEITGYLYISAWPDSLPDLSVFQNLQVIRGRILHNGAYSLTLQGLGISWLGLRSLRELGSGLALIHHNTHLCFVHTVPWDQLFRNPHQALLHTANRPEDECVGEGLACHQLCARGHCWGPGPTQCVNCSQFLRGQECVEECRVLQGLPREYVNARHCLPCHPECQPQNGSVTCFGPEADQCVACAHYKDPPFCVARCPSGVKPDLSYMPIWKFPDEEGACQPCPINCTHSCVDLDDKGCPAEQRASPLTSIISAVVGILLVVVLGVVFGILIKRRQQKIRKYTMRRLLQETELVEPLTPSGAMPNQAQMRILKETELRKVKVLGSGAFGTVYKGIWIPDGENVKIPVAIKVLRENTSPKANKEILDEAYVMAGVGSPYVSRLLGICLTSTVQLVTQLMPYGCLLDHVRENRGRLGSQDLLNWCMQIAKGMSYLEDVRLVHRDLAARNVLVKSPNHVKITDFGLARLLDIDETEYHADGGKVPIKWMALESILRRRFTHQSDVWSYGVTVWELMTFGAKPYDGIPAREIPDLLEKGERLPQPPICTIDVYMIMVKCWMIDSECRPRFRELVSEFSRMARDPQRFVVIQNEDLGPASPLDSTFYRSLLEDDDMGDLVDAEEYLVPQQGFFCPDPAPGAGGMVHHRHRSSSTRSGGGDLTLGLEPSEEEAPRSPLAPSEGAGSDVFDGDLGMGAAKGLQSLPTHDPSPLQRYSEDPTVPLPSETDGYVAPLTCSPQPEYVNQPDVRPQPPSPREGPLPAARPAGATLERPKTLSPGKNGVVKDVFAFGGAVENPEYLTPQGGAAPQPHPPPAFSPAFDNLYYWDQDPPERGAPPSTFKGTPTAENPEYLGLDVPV
Chain of Mitogen-activated protein kinase kinase kinase 1 (Q13233 whole entry): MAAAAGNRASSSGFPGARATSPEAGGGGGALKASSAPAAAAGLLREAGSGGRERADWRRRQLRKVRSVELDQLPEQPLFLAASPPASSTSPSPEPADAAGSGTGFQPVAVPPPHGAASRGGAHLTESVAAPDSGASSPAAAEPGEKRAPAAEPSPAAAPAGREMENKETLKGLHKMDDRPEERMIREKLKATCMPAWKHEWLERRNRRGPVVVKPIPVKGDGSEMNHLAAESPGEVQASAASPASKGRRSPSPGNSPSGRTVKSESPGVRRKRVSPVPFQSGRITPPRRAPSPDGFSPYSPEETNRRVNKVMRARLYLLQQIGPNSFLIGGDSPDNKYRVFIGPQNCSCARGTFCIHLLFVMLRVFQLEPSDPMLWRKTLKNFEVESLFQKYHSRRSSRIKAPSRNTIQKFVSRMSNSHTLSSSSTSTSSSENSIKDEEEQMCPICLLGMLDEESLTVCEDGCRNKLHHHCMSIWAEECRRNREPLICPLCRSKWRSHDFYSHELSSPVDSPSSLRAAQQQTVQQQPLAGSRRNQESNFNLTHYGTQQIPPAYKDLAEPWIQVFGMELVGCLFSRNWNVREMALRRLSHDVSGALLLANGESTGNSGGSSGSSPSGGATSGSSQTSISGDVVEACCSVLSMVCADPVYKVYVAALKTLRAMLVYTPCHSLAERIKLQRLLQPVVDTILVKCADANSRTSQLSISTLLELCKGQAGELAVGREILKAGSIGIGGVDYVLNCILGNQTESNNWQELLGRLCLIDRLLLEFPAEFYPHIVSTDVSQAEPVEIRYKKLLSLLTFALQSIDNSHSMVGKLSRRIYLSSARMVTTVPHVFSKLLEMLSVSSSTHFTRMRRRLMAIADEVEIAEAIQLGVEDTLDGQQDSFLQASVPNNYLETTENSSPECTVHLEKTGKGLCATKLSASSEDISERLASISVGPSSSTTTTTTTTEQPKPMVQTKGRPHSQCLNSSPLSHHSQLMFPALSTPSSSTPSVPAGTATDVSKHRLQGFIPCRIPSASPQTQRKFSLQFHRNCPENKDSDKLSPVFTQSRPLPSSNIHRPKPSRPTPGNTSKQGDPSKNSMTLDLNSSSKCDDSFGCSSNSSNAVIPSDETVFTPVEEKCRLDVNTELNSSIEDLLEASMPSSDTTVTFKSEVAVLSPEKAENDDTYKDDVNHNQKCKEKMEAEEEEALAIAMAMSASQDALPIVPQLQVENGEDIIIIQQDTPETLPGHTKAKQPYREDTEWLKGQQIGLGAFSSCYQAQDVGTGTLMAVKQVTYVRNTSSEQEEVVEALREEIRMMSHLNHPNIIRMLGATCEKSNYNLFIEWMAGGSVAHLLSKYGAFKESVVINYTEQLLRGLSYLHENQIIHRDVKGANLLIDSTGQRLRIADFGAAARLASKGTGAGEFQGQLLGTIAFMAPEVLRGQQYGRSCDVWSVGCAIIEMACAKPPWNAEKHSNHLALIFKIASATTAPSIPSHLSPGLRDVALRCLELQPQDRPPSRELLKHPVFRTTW
Chain of Dual specificity mitogen-activated protein kinase kinase 2 (Homo sapiens) (P36507 whole entry): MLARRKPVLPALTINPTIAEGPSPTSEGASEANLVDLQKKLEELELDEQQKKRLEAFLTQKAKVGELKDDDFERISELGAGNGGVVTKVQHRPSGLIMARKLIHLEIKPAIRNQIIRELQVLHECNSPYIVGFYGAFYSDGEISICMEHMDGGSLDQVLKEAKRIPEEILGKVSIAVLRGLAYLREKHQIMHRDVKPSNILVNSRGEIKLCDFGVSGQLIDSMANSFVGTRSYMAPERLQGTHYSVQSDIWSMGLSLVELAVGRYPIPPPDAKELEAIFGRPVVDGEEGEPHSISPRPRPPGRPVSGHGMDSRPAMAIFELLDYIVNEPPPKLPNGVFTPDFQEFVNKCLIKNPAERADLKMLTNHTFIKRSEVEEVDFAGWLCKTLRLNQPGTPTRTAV

In turn, `Nc1cnc(N2CCc3cc(S(=O)(=O)Nc4c(F)cc(Cl)cc4F)cc(N4CCCC4=O)c32)nc1` [TP-020n] returned a % of control in [1] of 89%.

Regarding `COc1cc(Nc2nc(C)cc(-c3cnn4nc(OC)ccc34)n2)cc(C(F)(F)F)c1`, the % of control in [2] is 86%. As to `C=CC(=O)Nc1cc(-n2c(=O)ccc3cnc4ccc(-c5ccc(NS(C)(=O)=O)cc5)cc4c32)ccc1C`, the % of control in [3] (at 1 µM) amounted to 100%; in [3] (at 10 µM), 58%. Turning to `CC[C@@H]1[C@H](F)C(=O)N[C@@H]1COc1nccc2cc(C(N)=O)c(OC)cc12` [ZIMLOVISERTIB], the % of inhibition in [4] was determined as 16.7%; in [5] it was 8.76%; in test [6], 11.6%.

In the case of `CCC(=O)N1CC[C@H](Nc2ncnc3c2CN(c2cnc(OC)c(C(F)(F)F)c2)CC3)C1` [LENIOLISIB], the IC50 in [7] was above 10 µM. In test [8], `COCC(=O)NC/C=C/c1ccc2ncnc(Nc3ccc(Oc4ccc(C)nc4)c(C)c3)c2c1` [CP-724714] came in with a % of control of 100%. Take `N#Cc1cccc(-c2c[nH]c3ncnc(N4CCOCC4)c23)c1`: the % of control in test [9] is 88%.

The term IC50 denotes the concentration needed to halve the response being measured. Higher therefore signals lower potency.
